*1 amine or outer side, *2 acyl side, *3 side chain or, on linkers, in order; H or OH if unused. Where a SMILES comes first, the peptide text is derived from it. Bridges are numbered along the chain shown (N, C = ends). [ ]: non-standard residue; d: D form. X1 = O=C(O)CCCCCCCCCCCCCCCCCCC(=O)N[C@@H](CCCCNC(=O)COCCOCCNC(=O)COCCOCCNC(=O)CCC(=O)N(CCNC(=O)C[*:1])CCNC(=O)C[*:2])C(=O)O; Phe(2-F) = N[C@@H](Cc1ccccc1F)C(=O)O; αMeL = CC(C)C[C@](C)(N)C(=O)O; Aib = CC(C)(N)C(=O)O
How the values were obtained:
[1] = target: T1, GCGR (Homo sapiens, UniProt P47871); assay: CreLuc method (CRE-luciferase reporter), 293HEK/pGM-CREB-L-Luc/GCGR pool; format: cell-based; settings: 6 h incubation, read-out: EC50 (pM) for each receptor GCGR
T1 construct: expressed in transfected cells
T1 sequence (P47871 26-477, species assumed): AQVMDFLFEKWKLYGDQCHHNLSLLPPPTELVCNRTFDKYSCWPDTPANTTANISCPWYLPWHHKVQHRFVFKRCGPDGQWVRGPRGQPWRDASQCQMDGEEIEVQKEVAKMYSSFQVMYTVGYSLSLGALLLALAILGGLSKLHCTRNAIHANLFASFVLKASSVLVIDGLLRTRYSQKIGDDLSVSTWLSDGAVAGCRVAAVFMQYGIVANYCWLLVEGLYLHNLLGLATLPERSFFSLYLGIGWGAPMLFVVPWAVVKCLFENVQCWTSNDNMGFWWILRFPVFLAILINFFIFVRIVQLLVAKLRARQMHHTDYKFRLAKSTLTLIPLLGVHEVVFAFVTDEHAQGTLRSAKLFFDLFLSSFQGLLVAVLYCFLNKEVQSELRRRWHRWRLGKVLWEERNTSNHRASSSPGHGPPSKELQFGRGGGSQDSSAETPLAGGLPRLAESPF
In short: (§1)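 Stable HEK293 pools co-expressing each receptor with a CRE-luciferase reporter were plated at 20,000 cells/well in freestyle medium and treated with compound dilution series for 6 h at 37 °C. Luminescence was read with ONE-GLO to derive EC50.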

[2] = target: T1, GCGR; assay: cAMP method (HTRF cAMP detection kit), HEK293/pGM-CREB-L-Luc/GCG pool; format: cell-based; settings: read-out: EC50 (pM) for each receptor GCGR
Procedure: (§2) 2. Insulinotropic analogues can bind to target receptors on the cell membrane, activate the receptors, and induce release. The activity of the test substance can be determined using the HTRF method with a cAMP detection kit. Therefore, the cAMP method can be used to detect the target peptide derivatives (or polypeptide derivatives, i.e., TG1-TG86) prepared in Example 1 and Example 2. […] The test cell line was selected, treated with cAMP-specific trypsin for digestion. 3 mL of serum-free DMEM culture medium was added, and the cells were pipetted, resuspended, and counted. 5 µL of IBMX (prepared with serum-free DMEM medium, 0.5 mM) and test cells (5 µL/7500 cells/well) were added in a 384-well plate sequentially. The plate was incubated at 37°C under 5% CO2 for 30 min, followed by the addition of cAMP-d2 (5 µL, 1x) and Anti-cAMP-Cryptate (5 µL, 1x). The mixture was kept at room temperature for 1 h, after which the HTRF value was measured using a chemiluminescent microplate reader, and the determination result was recorded. […] Table 4: EC50 values for target peptide derivatives

[3] = target: T2, GLP-1R (Homo sapiens, UniProt P43220); assay: CreLuc method (CRE-luciferase reporter), HEK293/pGM-CREB-L-Luc/GLP-1R pool; format: cell-based; settings: 6 h incubation, read-out: EC50 (pM) for each receptor GLP-1R
T2 construct: expressed in transfected cells
T2 sequence (P43220 24-463, species assumed): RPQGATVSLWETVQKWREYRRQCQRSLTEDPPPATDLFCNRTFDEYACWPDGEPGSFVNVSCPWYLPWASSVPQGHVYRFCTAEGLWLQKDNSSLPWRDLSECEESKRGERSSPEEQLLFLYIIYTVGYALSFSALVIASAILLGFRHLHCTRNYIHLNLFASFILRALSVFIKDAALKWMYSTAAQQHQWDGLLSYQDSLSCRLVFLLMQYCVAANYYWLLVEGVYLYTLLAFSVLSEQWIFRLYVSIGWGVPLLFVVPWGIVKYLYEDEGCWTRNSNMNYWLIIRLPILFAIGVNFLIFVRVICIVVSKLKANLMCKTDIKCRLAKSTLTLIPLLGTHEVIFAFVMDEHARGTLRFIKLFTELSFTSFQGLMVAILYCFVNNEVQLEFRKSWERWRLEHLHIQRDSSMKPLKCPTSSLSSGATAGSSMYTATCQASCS
In short: as §1

[4] = target: T3, GIPR (Homo sapiens, UniProt P48546); assay: CreLuc method (CRE-luciferase reporter), HEK293/pGM-CREB-L-Luc/GIPR pool; format: cell-based; settings: 6 h incubation, read-out: EC50 (pM) for each receptor GIPR
T3 construct: expressed in transfected cells
T3 sequence (P48546 22-466): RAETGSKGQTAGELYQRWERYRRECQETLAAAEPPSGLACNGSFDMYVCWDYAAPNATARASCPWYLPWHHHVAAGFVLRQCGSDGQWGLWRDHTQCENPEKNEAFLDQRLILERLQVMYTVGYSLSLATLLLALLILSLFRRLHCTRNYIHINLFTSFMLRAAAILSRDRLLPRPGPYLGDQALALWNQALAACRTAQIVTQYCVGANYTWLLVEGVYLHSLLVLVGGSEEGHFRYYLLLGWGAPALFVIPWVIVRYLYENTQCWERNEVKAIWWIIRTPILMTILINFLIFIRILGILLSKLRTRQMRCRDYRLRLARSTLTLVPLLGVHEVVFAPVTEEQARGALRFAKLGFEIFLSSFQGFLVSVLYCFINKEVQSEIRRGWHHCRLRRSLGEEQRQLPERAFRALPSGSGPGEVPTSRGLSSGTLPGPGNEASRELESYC
In short: as §1

[5] = target: T3, GIPR; assay: cAMP method (HTRF cAMP detection kit), HEK293/pGM-CREB-L-Luc/GIP pool; format: cell-based; settings: read-out: EC50 (pM) for each receptor GIPR
Procedure: as §2

[6] = in vivo; set-up: species or system male SD rats; settings: rat
Procedure: The pharmacokinetic behavior of target peptide derivatives (or polypeptide derivatives) prepared in Example 1 and Example 2, i.e., TG1-TG94 in rodents was tested. The specific steps are as follows:
The target peptide derivatives (TG1-TG94) to be tested were administered to male SD rats via subcutaneous injection (SC, 3 mg/kg; drug vehicle: PBS, concentration: 1.5 mg/mL; administration volume: 2 mL) and intravenous injection (IV, 1 mg/kg; drug vehicle: PBS, concentration: 0.5 mg/mL; administration volume: 2 mL) as a single dose, respectively. Whole blood samples were collected from the jugular vein or other appropriate vein at the following time points after administration: for SC, 15 min, 30 min, 1 h, 2 h, 4 h, 6 h, 8 h, 24 h, 48 h, 72 h, 96 h, 120 h, and 168 h; for IV, 5 min, 15 min, 30 min, 1 h, 2 h, 4 h, 8 h, 24 h, 48 h, 72 h, 96 h, 120 h, and 168 h. 0.2 mL of blood was collected and transferred into a labeled EDTA-K2 anticoagulant tube. The tube was gently inverted to ensure thorough mixing of the anticoagulant (EDTA-K2) with the blood and immediately placed on wet ice. Plasma separation was performed as soon as possible by centrifugation under the following conditions: 4°C, 6800xg, for 6 min. The plasma samples were stored in a refrigerator at no higher than -20°C and used for analysis when needed.
Under the condition of yellow light in an ice-water bath, except for blank samples, 300 µL of precipitant containing an internal standard was added to a 96-well plate containing 20 µL of standard curve sample, quality control sample, or unknown sample; 300 µL of acetonitrile was added to the blank sample. The mixture was vortexed, mixed well, and then centrifuged. 150 µL of the supernatant after centrifugation was transferred to a new 96-well plate, and 150 µL of ultrapure water was added and mixed well. The above samples were subjected to quantitative analysis using LC-MS analysis with XB-C18 (2.1 * 100 mm, 3 µm) chromatography for gradient elution. The mobile phases used were: mobile phase A = 0.1% formic acid-water; mobile phase B = acetonitrile. Phoenix WinNonlin software was used to calculate the pharmacokinetic parameters. […] Table 5A: Pharmacokinetic parameters of target peptide derivatives

CC[C@H](C)[C@H](NC(=O)[C@H](Cc1ccccc1)NC(=O)[C@H](C)NC(=O)[C@@H]1CSCC(=O)NCCN(C(=O)CCC(=O)NCCOCCOCC(=O)NCCOCCOCC(=O)NCCCC[C@H](NC(=O)CCCCCCCCCCCCCCCCCCC(=O)O)C(=O)O)CCNC(=O)CSC[C@H](NC(=O)[C@H](CCCCN)NC(=O)[C@H](CC(=O)O)NC(=O)[C@H](CC(C)C)NC(=O)[C@](C)(CC(C)C)NC(=O)[C@@H](NC(=O)[C@H](CO)NC(=O)[C@H](Cc2ccc(O)cc2)NC(=O)[C@H](CC(=O)O)NC(=O)[C@H](CO)NC(=O)[C@@H](NC(=O)[C@H](Cc2ccccc2F)NC(=O)[C@@H](NC(=O)CNC(=O)[C@H](CCC(N)=O)NC(=O)C(C)(C)NC(=O)[C@@H](N)Cc2ccc(O)cc2)[C@@H](C)O)[C@@H](C)O)[C@@H](C)CC)C(=O)N[C@@H](C)C(=O)N[C@@H](CCC(N)=O)C(=O)N1)C(=O)N[C@@H](CCC(=O)O)C(=O)N[C@@H](Cc1ccc(O)cc1)C(=O)N[C@@H](CC(C)C)C(=O)N[C@@H](CC(C)C)C(=O)N[C@@H](C)C(=O)NCC(=O)NCC(=O)N1CCC[C@H]1C(=O)N[C@@H](CO)C(=O)N[C@@H](CO)C(=O)NCC(=O)N[C@@H](C)C(=O)N1CCC[C@H]1C(=O)N1CCC[C@H]1C(=O)N1CCC[C@H]1C(=O)N[C@@H](CO)C(N)=O [TG59] (H-Y[Aib]QGT[Phe(2-F)]TSDYSI[αMeL]LDKCAQCAFIEYLLAGGPSSGAPPPS-NH2; linker 17-20 via X1)
EC50 [1]: 392 pM | EC50 [2]: 9.1 pM | EC50 [3]: 51.8 pM | EC50 [4]: 30.7 pM | EC50 [5]: 3.9 pM

CC[C@H](C)[C@@H]1NC(=O)[C@H](Cc2ccccc2)NC(=O)[C@@H](NC(=O)C(C)(C)NC(=O)[C@H](CCC(N)=O)NC(=O)[C@H](C)NC(=O)[C@H](CCCCNC(C)=O)NC(=O)[C@](C)(CCCCN)NC(=O)[C@H](CC(=O)O)NC(=O)[C@H](CC(C)C)NC(=O)[C@](C)(CC(C)C)NC(=O)[C@@H](NC(=O)[C@](C)(CO)NC(=O)[C@H](Cc2ccc(O)cc2)NC(=O)[C@H](CC(=O)O)NC(=O)[C@H](CO)NC(=O)[C@@H](NC(=O)[C@H](Cc2ccccc2F)NC(=O)[C@@H](NC(=O)CNC(=O)[C@H](CCC(N)=O)NC(=O)C(C)(C)NC(=O)[C@@H](N)Cc2ccc(O)cc2)[C@@H](C)O)[C@@H](C)O)[C@@H](C)CC)CSCC(=O)NCCN(C(=O)CCC(=O)NCCOCCOCC(=O)NCCOCCOCC(=O)NCCCC[C@H](NC(=O)CCCCCCCCCCCCCCCCCCC(=O)O)C(=O)O)CCNC(=O)CSC[C@@H](C(=O)NCC(=O)NCC(=O)N2CCC[C@H]2C(=O)N[C@@H](CO)C(=O)N[C@@H](CO)C(=O)NCC(=O)N[C@@H](C)C(=O)N2CCC[C@H]2C(=O)N2CCC[C@H]2C(=O)N2CCC[C@H]2C(=O)N[C@@H](CO)C(N)=O)NC(=O)[C@H](CC(C)C)NC(=O)[C@H](CC(C)C)NC(=O)[C@H](Cc2ccc(O)cc2)NC(=O)[C@H](CCC(=O)O)NC1=O [TG61]
EC50 [1]: 268 pM | EC50 [2]: 12.4 pM | EC50 [3]: 264 pM | EC50 [4]: 12.6 pM | EC50 [5]: 5.9 pM

CC[C@H](C)[C@@H]1NC(=O)[C@H](Cc2ccccc2)NC(=O)[C@@H](NC(=O)C(C)(C)NC(=O)[C@H](CCC(N)=O)NC(=O)[C@H](C)NC(=O)[C@H](CCCCNC(C)=O)NC(=O)[C@H](CCCCN)NC(=O)[C@H](CC(=O)O)NC(=O)[C@H](CC(C)C)NC(=O)[C@](C)(CC(C)C)NC(=O)[C@@H](NC(=O)[C@H](CO)NC(=O)[C@H](Cc2ccc(O)cc2)NC(=O)[C@H](CC(=O)O)NC(=O)[C@H](CO)NC(=O)[C@@H](NC(=O)[C@H](Cc2ccccc2F)NC(=O)[C@@H](NC(=O)CNC(=O)[C@H](CCC(N)=O)NC(=O)C(C)(C)NC(=O)[C@@H](N)Cc2ccc(O)cc2)[C@@H](C)O)[C@@H](C)O)[C@@H](C)CC)CCCCNC(=O)CN(C(=O)CCCNC(=O)COCCOCCNC(=O)COCCOCCNC(=O)CC[C@H](NC(=O)CCCCCCCCCCCCCCCCCCC(=O)O)C(=O)O)CC(=O)NCCCC[C@@H](C(=O)NCC(=O)NCC(=O)N2CCC[C@H]2C(=O)N[C@@H](CO)C(=O)N[C@@H](CO)C(=O)NCC(=O)N[C@@H](C)C(=O)N2CCC[C@H]2C(=O)N2CCC[C@H]2C(=O)N2CCC[C@H]2C(=O)N[C@@H](CO)C(N)=O)NC(=O)[C@H](CC(C)C)NC(=O)[C@H](CC(C)C)NC(=O)[C@H](Cc2ccc(O)cc2)NC(=O)[C@H](CCC(=O)O)NC1=O [TG85]
EC50 [1]: 330 pM | EC50 [3]: 254 pM | EC50 [4]: 61.2 pM

CC[C@H](C)[C@H](NC(=O)[C@H](Cc1ccccc1)NC(=O)[C@H](C)NC(=O)[C@@H]1CCCCNC(=O)CN(C(=O)CCCNC(=O)COCCOCCNC(=O)COCCOCCNC(=O)CC[C@H](NC(=O)CCCCCCCCCCCCCCCCCCC(=O)O)C(=O)O)CC(=O)NCCCC[C@H](NC(=O)[C@H](CCCCN)NC(=O)[C@H](CC(=O)O)NC(=O)[C@H](CC(C)C)NC(=O)[C@](C)(CC(C)C)NC(=O)[C@@H](NC(=O)[C@H](CO)NC(=O)[C@H](Cc2ccc(O)cc2)NC(=O)[C@H](CC(=O)O)NC(=O)[C@H](CO)NC(=O)[C@@H](NC(=O)[C@H](Cc2ccccc2F)NC(=O)[C@@H](NC(=O)CNC(=O)[C@H](CCC(N)=O)NC(=O)C(C)(C)NC(=O)[C@@H](N)Cc2ccc(O)cc2)[C@@H](C)O)[C@@H](C)O)[C@@H](C)CC)C(=O)N[C@@H](C)C(=O)N[C@@H](CCC(N)=O)C(=O)N1)C(=O)N[C@@H](CCC(=O)O)C(=O)N[C@@H](Cc1ccc(O)cc1)C(=O)N[C@@H](CC(C)C)C(=O)N[C@@H](CC(C)C)C(=O)N[C@@H](C)C(=O)NCC(=O)NCC(=O)N1CCC[C@H]1C(=O)N[C@@H](CO)C(=O)N[C@@H](CO)C(=O)NCC(=O)N[C@@H](C)C(=O)N1CCC[C@H]1C(=O)N1CCC[C@H]1C(=O)N1CCC[C@H]1C(=O)N[C@@H](CO)C(N)=O [TG87]
EC50 [1]: 172 pM | EC50 [3]: 171 pM | EC50 [4]: 27.6 pM | AUC(0-inf) ([6]; male, SD, iv, 1 mg/kg): 257 µg·h/mL | AUC(0-t) ([6]; male, SD, iv, 1 mg/kg): 254 µg·h/mL | MRT ([6]; male, SD, iv, 1 mg/kg): 21.4 h | Vd ([6]; male, SD, iv, 1 mg/kg): 0.0891 L/kg | clearance ([6]; male, SD, iv, 1 mg/kg): 0.0706 mL/min/kg | half-life ([6]; male, SD, iv, 1 mg/kg): 13.9 h | bioavailability ([6]; male, SD, sc): 31.8% | AUC(0-inf) ([6]; male, SD, sc, 3 mg/kg): 245 µg·h/mL | AUC(0-t) ([6]; male, SD, sc, 3 mg/kg): 243 µg·h/mL | CL/F ([6]; male, SD, sc, 3 mg/kg): 0.204 mL/min/kg | Cmax ([6]; male, SD, sc, 3 mg/kg): 4880 ng/mL | MRT ([6]; male, SD, sc, 3 mg/kg): 32.3 h | Tmax ([6]; male, SD, sc, 3 mg/kg): 24 h | half-life ([6]; male, SD, sc, 3 mg/kg): 15.6 h | AUC0-t /AUC0-inf ([6]; iv, 1 mg/kg): 0.989 | Kel ([6]; iv, 1 mg/kg): 0.0504 h⁻¹ | AUC0-t /AUC0-inf ([6]; sc, 3 mg/kg): 0.993 | Vz/F ([6]; sc, 3 mg/kg): 0.276 L/kg
